Test results from patent publication US4791215A, “Derivatives of glutamic acid and aspartic acid” (priority 1984, dated 1988).
Where “and” joins values, the source holds several entries; their conditions need not be identical. Equal values may be shown once.

Legend:
morphine analgesia = experiment: Increase in analgesia of morphine, Tail Flick Test (Experiment 1); type: in vivo, rats; conditions: for percentage variation of latency of pain sensation / M (10-90) ± SE, mean percentage variation of latency: compound 10 mg/kg i.p. + morphine 2 mg/kg; for M (10-90) ± SE, mean percentage variation of latency: mean 10-90 min; for Power ratio with respect to morphine alone: rat, in vivo
Procedure, shortened: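 Tail-flick latency to 75 °C radiant heat, capped at 8 s, measured in male non-fasted rats weighing 150-200 g. Percentage change per animal derived from pre-treatment baseline versus post-drug readings at 10-90 min (10, 20, 30, 45, 60, 90 min).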

[1] = system: CCK-8 induced contraction of guinea pig gall bladder; experiment: Anti-CCK activity on gall bladder strips in vitro; conditions: CCK-8 10 ng/ml
Procedure, shortened: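 CCK-8 at 10 ng/ml drove isometric contraction of guinea pig gall bladder strips held at 32 °C in oxygenated Krebs (O2/CO2 95:5). Antagonism was measured at graded compound concentrations and reported as ED50, in μg/ml, for 50% inhibition of the contraction.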

[2] = system: intestinal transit of carbon; experiment: Anti-spastic activity, vegetable carbon intestinal transit test; type: in vivo, mice; conditions: Mus musculus, ip; read-out: antispastic activity ED50 (dose reducing intestinal transit of carbon by 50%)
From the text: The anti-spastic activity which the present compounds exert on the entire digestive system is also notable. Measured in mice with the vegetable carbon test (rate of transit through the stomach and the intestine), this activity is illustrated in the following table.
claimed administered intraperitoneally in mice. Values
expressed as the ED 50 in mg/kg, that is the dose which
reduces the intestinal transit of carbon by 50%

biliary flow = experiment: Biliary flow (choleretic activity); type: in vivo, rat
Description: The following experiment was carried out: a cannula was inserted in the bile duct of a rat anaesthetised with urethane, together with a small needle connected to a polythene tube, and the bile liquid was thus collected. The collection was carried out for one hour before the intravenous administration of the tested compounds and for a further two hours after administration, the samples collected at 30 minute intervals being weighed.
In order to prevent possible dehydration of the animals, 0.5 ml of physiological solution was administered at 30 minute intervals up to a total of 3 ml.

[3] = system: CCK-8 induced contraction of guinea pig gall bladder; experiment: Anti-CCK-8 activity on gall bladders in situ; type: in vivo
Description: In order to confirm the evidence of the studies in vitro several of the more interesting compounds were tested in vivo on guinea pig gall baldders in situ.
The method used is that described by Ljungberg (Svensk. Farm. Tidskr. 68, 351-354, 1964).
Guinea pigs having a weight of about 400 g, anaesthetised with urethane, were used; the substances under examination were administered intraveneously into the jugular vein.
The responses of the gall bladders to the substances under test were detected by means of a force transducer and recorded by means of a microdynamometer. The optimum contracting dose was chosen as 10 ng/kg of CCK-8. The antagonist compounds tested were administered in increasing doses so as to enable the calculation of an ED50 value, that is in the dose (in mg/kg i.v.) capable of inhibiting 50% of the contracting effect of 10 ng/kg i.v. of CCK-8.
The results obtained are given in Table 7 below, which gives the doses used and the effects obtained expressed as a percentage inhibition of the contracting effect of CCK-8 as well as the ED50 found.

[4] = system: tolerance induced by morphine; experiment: Antagonism to development of tolerance to repeated morphine HCl, Tail Flick Test (Experiment 5); conditions: compound 10 mg/kg + morphine 5 mg/kg i.p.
[5] = system: endogenous opiates analgesia; experiment: Analgesic activity of endogenous opiates released by transcutaneous shock, Tail Flick Test (Experiment 3); type: in vivo, rats
Description: Experiment No. 3: Influence of several of the compounds of the invention on the analgesic activities of endogenous opiates released by transcutaneous shock in rats and measured by the Tail Flick Test
The method is that described by Lewis et al. J. Neurosc. 1, 358 […]. Male rats which have not fasted and have a weight of about 200 g are used.
The animals are stressed by the application of a 60 Hz-2.5 mA current to the front leg in pulses of a duration of 1 second every 5 seconds for 20 minutes.
This stress regime induces the release of endogenous opiates.

SMILES	percentage variation of latency of pain sensation (morphine analgesia; 10') [%]	percentage variation of latency of pain sensation (morphine analgesia; 20') [%]	percentage variation of latency of pain sensation (morphine analgesia; 30') [%]	percentage variation of latency of pain sensation (morphine analgesia; 45') [%]	percentage variation of latency of pain sensation (morphine analgesia; 60') [%]	percentage variation of latency of pain sensation (morphine analgesia; 90') [%]	M (10-90) ± SE, mean percentage variation of latency (morphine analgesia) [%]	Power ratio with respect to morphine alone (morphine analgesia)	ED50 (concentration antagonising 50% of contracting effect of CCK-8) [1] [µg/mL]	ED50 [2] [mg/kg]	also measured
CCCN(CCC)C(=O)C(CCC(=O)O)NC(=O)c1cccc(C)c1 (stereo not drawn) [Compound C-28]	15.7 ± 10	66.8 ± 18	68.3 ± 20	68.4 ± 17	74.5 ± 11	27.5 ± 15	53.5 ± 25	1.80	> 300	91.8	
N#Cc1cccc(C(=O)NC(CCC(=O)N2CCCCC2)C(=O)O)c1 [Compound D-11]	25.3 ± 7.0	68.3	74.8 ± 18.0	82.8 ± 17.0	86.2 ± 14.0	77.5 ± 13.0	69.1	2.32	> 200		% increase in biliary flow with respect to controls (biliary flow; 12.5 mg/kg i.v.): +33.7%; % increase in biliary flow with respect to controls (biliary flow; 25 mg/kg i.v.): +80.0%; % increase in biliary flow with respect to controls (biliary flow; 50 mg/kg i.v.): +118.8%; ED50 (biliary flow; Rattus norvegicus, iv, average over 2 hours, read-out: ED50 (dose causing 50% increase in biliary flow)): 18.5 mg/kg
CCCN(CCC)C(=O)C(CCC(=O)O)NC(=O)c1cc(C)cc(C)c1 (stereo not drawn) [Compound C-31]	28.9 ± 17	43.3 ± 25	54.7 ± 22	68.0 ± 22	57.4 ± 16	49.5 ± 19	50.4 ± 14	1.69	22.9		percentage inhibition of contracting effect of CCK-8 ([3]; 30 mg/kg i.v., single experiments): 82.1% and 92.5% and 58.7%; ED50 ([3]; Cavia porcellus, iv, CCK-8 10 ng/kg i.v., read-out: ED50 (inhibition of 50% of contracting effect of CCK-8)): 16.3 mg/kg
CCCCN(CCCC)C(=O)CCC(NC(=O)c1ccc(C#N)cc1)C(=O)O [Compound D-8]	29.0 ± 15.0	50.9	61.4 ± 22.0	57.7 ± 18.0	52.9 ± 20.0	28.3 ± 12.0	46.7 ± 14.4	1.56	> 200		percentage variation in latency time (Effect %) ([4]; 24 h): 43.65%; percentage variation in latency time (Effect %) ([4]; 48 h): 32.80%; percentage variation in latency time (Effect %) ([4]; 72 h): 31.78%; percentage variation in latency time (Effect %) ([4]; 96 h): 35.45%; percentage variation in latency time (Effect %) ([4]; 120 h): 42.08%; percentage variation in latency time (Effect %) ([4]; 144 h): 29.33%; percentage variation in latency time (Effect %) ([4]; 168 h): 19.17%; percentage variation in latency time (Effect %) ([4]; time 0): 47.32%
CCCN(CCC)C(=O)C(CCC(=O)O)NC(=O)c1ccc(CC)cc1 (stereo not drawn) [Compound C-34]	19.6 ± 23	59 ± 17	85.5 ± 10	78.4 ± 16	67 ± 20	59.1	60.6 ± 23	2.03	40.1	65.5	average latency, Tail Flick ([5]; compound 1 mg/kg iv + stress, 5'): 5.40 ± 0.35 s; average latency, Tail Flick ([5]; compound 1 mg/kg iv + stress, 10'): 4.9 ± 0.25 s; average latency, Tail Flick ([5]; compound 1 mg/kg iv + stress, 15'): 3.4 ± 0.16 s; average latency, Tail Flick ([5]; compound 3 mg/kg iv + stress, 5'): 6.56 ± 0.33 s; average latency, Tail Flick ([5]; compound 3 mg/kg iv + stress, 10'): 5.58 ± 0.31 s; average latency, Tail Flick ([5]; compound 3 mg/kg iv + stress, 15'): 3.98 ± 0.32 s
CCCc1ccc(C(=O)NC(CCC(=O)O)C(=O)N(CC)CC)cc1 (stereo not drawn) [Compound C-41]	32.1 ± 18	60.0 ± 22	40.0 ± 17	46.7 ± 23	11.5	7.4 ± 20	32.9 ± 20	1.10		182	
CCCCN(CCCC)C(=O)C(CCC(=O)O)NC(=O)c1ccc(I)cc1 (stereo not drawn) [Compound C-27]	52.3 ± 13.0	81.4	90.2 ± 7.0	85.9 ± 10.0	60.3 ± 15.0	50.3 ± 13.0	70.0 ± 17.8	2.35	10.2	40.3	
CCCCN(CCCC)C(=O)CCC(NC(=O)c1cccc(C#N)c1)C(=O)O [Compound D-5]	72.2	92.5 ± 7.0	95.3 ± 5.0	96.0 ± 4.0	74.3 ± 11.0	75.5	84.3 ± 11.4	2.83	> 200	74.9	
CCCCCCNC(=O)C(CCC(=O)O)NC(=O)c1ccc(C)c(C)c1 (stereo not drawn) [Compound C-46]	14.7 ± 9	60.0 ± 18	28.0 ± 5	55.2 ± 20	30.2 ± 17	12.2 ± 11	32.9 ± 21	1.10		66.9	
CCCCc1ccc(C(=O)NC(CCC(=O)O)C(=O)N(CCC)CCC)cc1 (stereo not drawn) [Compound C-37]	27.6 ± 13	45.8 ± 18	55.0 ± 16	51.1	23.4 ± 21	12.4 ± 13	35.9 ± 17	1.20		160	
